Experimental data taken from patent US20080075796A1, “Compositions and Methods for Controlling Insects” (TyraTech, Inc., priority 2003, published 2008).

Legend:
Type in all cases: in vivo
Carpenter ants [1] = assay: Repellent effect on carpenter ants (treated filter paper)
Method: (§1) Adult insect are randomly selected for testing the repellent effect of compositions and are not individually marked. About 5 insects per replicate are used. About 3 replicates are used for each treatment. Untreated control tests are included with only solvent (acetone) application to an equal sized population/replications, held under identical conditions. A filter paper (about 80 cm^2) is treated with the composition (about 100 mg in […] acetone). After about 3 min of air drying, the filter paper is placed in a dish and repellency against insects is performed. Insects are released to the dish, one insect at a time at the far end of the dish. Using one or more stopwatches, the time spent on either the filter paper or the untreated surface of the dish is recorded up to about 300 seconds. Repellency ratio (RR) is calculated as follows: RR=[(time on control surface−time on treated surface)/total time of test]. If RR>0 then the composition is considered to have a repellant effect, that is to say, an effect, wherein more insects are repelled away from treated surface than the control surface; if RR<0 then the composition is considered not to have a repellant effect.
The repellent effect of various plant essential oils is tested by treating a filter paper with the test oils. After about five minutes at room temperature, the paper is placed in a dish and ants are introduced one at a time. The repellency is determined as described above, in Example 14. Oils are tested alone. Additionally, oils are mixed to form compositions, which are then tested.
For purposes of comparison to the repellent effect of various compositions made of various plant essential oils, the repellency of an insect control agent, the commercial repellent 29% DEET, which may be purchased under the name, REPEL® (Wisconsin Pharmacal Company, Inc, Jackson, Wyo.), is measured against Carpenter ants by treating a filter paper with the 29% DEET. After about five minutes at room temperature, the paper is placed in a dish and ants are introduced one at a time. The repellency is determined as described above, in Example 14.
The repellent effect of commercial repellent DEET and various plant essential oils is tested by treating a filter paper with the test oils. After about five minutes at room temperature, the paper is placed in a dish and ants are introduced one at a time. The repellency is determined as described above, in Example 14. Oils are tested alone. Additionally, oils are mixed to form compositions, which are then tested.

red ants = assay: Repellent effect on red ants (visits to treated paper disk); conditions: for number of trips by red ants to treated paper disk: 100%
Method: Repellent effect of various compositions containing plant essential oils on red ants is tested in the following manner. A paper disk is treated with about 200 μl of each composition and placed in a dish. An untreated paper disk is placed in a control dish. Also, a paper disk is treated with about 200 μl 100% DEET and placed in a dish to compare the repellant effect of the compositions to that of DEET. Red ants are introduced into each dish. Insect behavior and number of visits to the treated paper disk are monitored for about 5 minutes. The number of visits by a red ant to the paper disk is recorded.
Residuality, with regard to pesticidal effect and repellent effect, is tested by treating a paper disk with the composition being tested, keeping the treated paper disk under laboratory conditions for a predetermined period of time (e.g., 0 min, 6 hours, 1 day, 3 days, 5 days, 7 days), and exposing red ants to the treated paper disk in the above described manners.

Carpenter ants [2] = assay: Repellent effect on carpenter ants (treated filter paper); conditions: DEET in concentrations of about 5 to 10%
Method: as §1
The repellent effect of various plant essential oils is tested by treating a filter paper with the test oils. […] The repellency is determined as described above, in Example 14. […]

[3] = test system: head lice Pediculus humanus capitus; assay: Pesticidal effect on head lice; conditions: time to kill 100% of the lice, dissolved in water
Method: (§2) Live adult head lice Pediculus humanus capitus are collected from female and male children between the age of about 4 and 11 living in the Karmos area, Alexandria, Egypt. The insects are collected using fine-toothed louse detector comb and pooled together. The collected lice are kept in dishes and used in the studies within about 30 minutes of their collection.
(§3) Various concentrations of the compositions being tested are prepared in water To allow the pesticidal effect of these compositions to be compared to that of a commercially available lice-killing agent, ivermectin, is dissolved in water. About 1 ml of each concentration of the compositions are applied to a dish, about 1 ml of the ivermectin solution is applied to a dish, and about 1 ml of water is applied to a control dish. About 10 adult head lice are introduced to each dish.
(§4) Treated and control dishes are kept under continuous observation and LT100 is observed. LT refers to the time required to kill a given percentage of insects; thus, LT100 refers to the time required to kill 100% of the lice. Head lice is considered dead if no response to a hard object is found.

[4] = test system: head lice Pediculus humanus capitus; assay: Pesticidal effect on head lice (LT100); conditions: about 1 ml in dish, about 10 adult head lice
Method: as §2, §3, §4

CCN(CC)C(=O)c1cccc(C)c1 [DEET]
Sec on T (Carpenter ants [1]; 5% DEET, Day 0): 282 (10) Sec | Sec on T (Carpenter ants [1]; 10% DEET, Day 0): 260 (6) Sec | sec. on T surface (Carpenter ants [1]; 29% DEET (REPEL), Day 0): 02.4 s | repellency (Carpenter ants [1]; DEET about 5 to 10%, in words): no signs of repellency | number of trips by the red ants to the treated paper disks (red ants; 0 min after treatment of disk): 0 | residuality of repellent effect (red ants; 100% DEET, in words): begins to loose potency after 1 day | number of trips by red ants to treated paper disk (red ants; 0 min after treatment, about 5 minutes observation): 0 | number of trips by red ants to treated paper disk (red ants; 6 hours after treatment): 0 | number of trips by red ants to treated paper disk (red ants; 1 day after treatment): 1 | number of trips by red ants to treated paper disk (red ants; 3 days after treatment): 2 | number of trips by red ants to treated paper disk (red ants; 5 days after treatment): 2 | number of trips by red ants to treated paper disk (red ants; 7 days after treatment): 2 | number of trips by the red ants to the treated paper disks (red ants; 6 hours after treatment of disk): 0 | number of trips by the red ants to the treated paper disks (red ants; 1 day after treatment of disk): 1 | number of trips by the red ants to the treated paper disks (red ants; 3 days after treatment of disk): 2 | number of trips by the red ants to the treated paper disks (red ants; 5 days after treatment of disk): 2 | number of trips by the red ants to the treated paper disks (red ants; 7 days after treatment of disk): 2 | repellency (Carpenter ants [2]): no signs of repellency

ivermectin [listing 1 of 2 here]
LT100 [3]: 5 min

ivermectin [listing 2 of 2 here]
LT100 (time required to kill 100% of the lice) [4]: 5 min
